Tested on: r(CUG)12-MBNL1 complex
Assay: Inhibition of the r(CUG)12-MBNL1 complex measured by TR-FRET
Assay type: biochemical
Settings: 80 nM RNA, 60 nM MBNL1-His6

Row | Structure (SMILES) | IC50 (Table M) [µM] | IC50 (Table L) [µM]
1 | CN(C)CCNC(=O)c1ccc(-c2nc3cc(-c4ccc5[nH]c(-c6ccc(C(=O)NCCCCCCCCNC(=O)c7ccc(-c8nc9cc(-c%10ccc%11[nH]c(-c%12ccc(C(=O)NCCN(C)C)cc%12)nc%11c%10)ccc9[nH]8)cc7)cc6)nc5c4)ccc3[nH]2)cc1 [Compound 422] | 5.65 | 
2 | CN(C)CCNC(=O)c1ccc(-c2nc3cc(-c4ccc5[nH]c(-c6ccc(C(=O)NCCCCCCCCCCNC(=O)c7ccc(-c8nc9cc(-c%10ccc%11[nH]c(-c%12ccc(C(=O)NCCN(C)C)cc%12)nc%11c%10)ccc9[nH]8)cc7)cc6)nc5c4)ccc3[nH]2)cc1 [Compound 424] | 5.82 | 
3 | Cn1c(-c2ccc(-c3nc4ccc(Br)cc4n3C)cc2)nc2ccc(Br)cc21 [Compound 90, 1,4-bis(6-bromo-1-methyl-1H-benzo[d]imidazol-2-yl)benzene] |  | > 200
4 | c1cc2nc(-c3ccc(-c4nc5ccc(OCCN6CCCCC6)cc5[nH]4)cc3)[nH]c2cc1OCCN1CCCCC1 [Compound 191] | 100 | 
5 | CN(C)CCNC(=O)c1ccc(-c2nc3ccc(-c4ccc5nc(-c6ccc(C(=O)N[C@@H]7CCN(C(=O)c8ccc(-c9nc%10ccc(-c%11ccc%12nc(-c%13ccc(C(=O)NCCN(C)C)cc%13)[nH]c%12c%11)cc%10[nH]9)cc8)C7)cc6)[nH]c5c4)cc3[nH]2)cc1 [Compound 454] | 3.4 | 
6 | COc1c(-c2nc3ccc(OCCCN(C)C)cc3[nH]2)ccc(-c2nc3ccc(OCCCN(C)C)cc3[nH]2)c1OC [Compound 303, 3,3′-(((2,3-dimethoxy-1,4-phenylene)bis(1H-benzo[d]imidazole-2,6-diyl))bis(oxy))bis(N,N-dimethylpropan-1-amine)] | > 200 | 
7 | CNCCNC(=O)c1ccc(-c2nc3cc(-c4ccc5[nH]c(-c6ccc(C(=O)NCCNC)cc6)nc5c4)ccc3[nH]2)cc1 [Compound 111, 4,4′-(1H,1′H-[5,5′-bibenzo[d]imidazole]-2,2′-diyl)bis(N-(2-(methylamino)ethyl)benzamide)] |  | 6.9
8 | Cn1c(-c2ccc(-c3nc4cc(N)ccc4n3C)cc2)nc2cc(N)ccc21 [Compound 83, 2,2′-(1,4-phenylene)bis(1-methyl-1H-benzo[d]imidazol-5-amine)] |  | > 200
9 | Oc1ccc2nc(-c3ccc(-c4nc5ccc(OCCN6CCCC6)cc5[nH]4)cc3)[nH]c2c1 [Compound 204] | 129 | 
10 | CN(C)CCNC(=O)c1ccc(-c2nc3cc(-c4ccc5[nH]c(-c6ccc(C(=O)NCCCCCCCCCNC(=O)c7ccc(-c8nc9cc(-c%10ccc%11[nH]c(-c%12ccc(C(=O)NCCN(C)C)cc%12)nc%11c%10)ccc9[nH]8)cc7)cc6)nc5c4)ccc3[nH]2)cc1 [Compound 423] | 5.31 | 
11 | CN(C)CCNC(=O)c1ccc2nc(-c3ccc(-c4nc5ccc(C(=O)O)cc5[nH]4)cc3)[nH]c2c1 [Compound 319] | > 200 | 
12 | CC(CNC(=O)c1ccc(-c2nc3cc(-c4ccc5[nH]c(-c6ccc(C(=O)NCCN(C)C)cc6)nc5c4)ccc3[nH]2)cc1)NC(=O)c1ccc(-c2nc3cc(-c4ccc5[nH]c(-c6ccc(C(=O)NCCN(C)C)cc6)nc5c4)ccc3[nH]2)cc1 (stereo not drawn) [Compound 411] | 1.91 | 
13 | C[C@@H](NC(=O)CNCCNC(=O)c1ccc(-c2nc3cc(-c4ccc5[nH]c(-c6ccc(C(=O)NCCN(C)C)cc6)nc5c4)ccc3[nH]2)cc1)C(=O)N[C@H](C)C(=O)N[C@H](C)C(=O)N[C@H](C)C(=O)N(CCNC(=O)c1ccc(-c2nc3cc(-c4ccc5[nH]c(-c6ccc(C(=O)NCCN(C)C)cc6)nc5c4)ccc3[nH]2)cc1)CC(N)=O (single isomer, unassigned) [Compound 444] | 13 | 
14 | C[C@H](C(=O)N(C)[C@H](C)C(=O)N(C)[C@H](C)C(=O)N(C)[C@H](C)C(=O)N(CCCn1cc(COCCOCCOCCOCCNC(=O)c2ccc(-c3nc4ccc(-c5ccc6nc(-c7ccc(C(=O)NCCN(C)C)cc7)[nH]c6c5)cc4[nH]3)cc2)nn1)CC(N)=O)N(C)C(=O)CNCCCn1cc(COCCOCCOCCOCCNC(=O)c2ccc(-c3nc4ccc(-c5ccc6nc(-c7ccc(C(=O)NCCN(C)C)cc7)[nH]c6c5)cc4[nH]3)cc2)nn1 [Compound 431] | > 200 | 
15 | CN(C)C/C=C\COc1ccc2nc(-c3ccc(-c4nc5ccc(OC/C=C\CN(C)C)cc5[nH]4)cc3)[nH]c2c1 [Compound 244, (2Z,2′Z)-4,4′-((2,2′-(1,4-phenylene)bis(1H-benzo[d]imidazole-6,2-diyl))bis(oxy))bis(N,N-dimethylbut-2-en-1-amine)] | 23.5 | 
16 | c1cn(-c2ccc3nc(-c4ccc(-c5nc6ccc(-n7ccnc7)cc6[nH]5)cc4)[nH]c3c2)cn1 [Compound 20, 1,4-bis(6-(1H-imidazol-1-yl)-1H-benzo[d]imidazol-2-yl)benzene] |  | > 200
17 | CN(C)CCNC(=O)CSc1ccc2nc(-c3ccc(-c4nc5ccc(SCC(=O)NCCN(C)C)cc5[nH]4)cc3)[nH]c2c1 [Compound 285, N-[2-(dimethylamino)ethyl]-2-[[2-(4-[6-[([[2-(dimethylamino)ethyl]carbamoyl]methyl)sulfanyl]-1H-1,3-benzodiazol-2-yl]phenyl)-1H-1,3-benzodiazol-6-yl]sulfanyl]acetamide] | > 200 | 
18 | COc1ccc2nc(-c3ccc(-c4nc5ccc(OC)cc5[nH]4)cc3)[nH]c2c1 [Compound 189, 1,4-Bis(6-methoxy-1H-benzo[d]imidazol-2-yl)benzene] | > 200 | 
19 | C[C@@H](NC(=O)CNCCNC(=O)c1ccc(-c2nc3cc(-c4ccc5[nH]c(-c6ccc(OCCCN(C)C)cc6)nc5c4)ccc3[nH]2)cc1)C(=O)N[C@H](C)C(=O)N[C@H](C)C(=O)N[C@H](C)C(=O)N(CCNC(=O)c1ccc(-c2nc3cc(-c4ccc5[nH]c(-c6ccc(OCCCN(C)C)cc6)nc5c4)ccc3[nH]2)cc1)CC(N)=O [Compound 448] | 3.5 | 
20 | COCCNC(=O)c1ccc2nc(-c3ccc(-c4nc5ccc(C(=O)NCCOC)cc5[nH]4)cc3)[nH]c2c1 [Compound 53, 2,2′-(1,4-phenylene)bis(N-(2-methoxyethyl)-1H-benzo[d]imidazole-6-carboxamide)] |  | > 200
21 | CNCCNC(=O)c1ccc2nc(-c3ccc(-c4nc5ccc(C(=O)NCCNC)cc5[nH]4)cc3)[nH]c2c1 [Compound 28, 2,2′-(1,4-phenylene)bis(N-(2-(methylamino)ethyl)-1H-benzo[d]imidazole-6-carboxamide)] |  | 12.3
22 | CN1CCC(NC(=O)c2ccc(-c3nc4cc(-c5ccc6[nH]c(-c7ccc(C(=O)O)cc7)nc6c5)ccc4[nH]3)cc2)CC1 [Compound 344] | 154 | 
23 | CN(C)CCNC(=O)c1ccc(-c2nc3ccc(-c4ccc5nc(-c6ccc(C(=O)NC[C@H]7CCCN7C(=O)c7ccc(-c8nc9ccc(-c%10ccc%11nc(-c%12ccc(C(=O)NCCN(C)C)cc%12)[nH]c%11c%10)cc9[nH]8)cc7)cc6)[nH]c5c4)cc3[nH]2)cc1 [Compound 453] | 6.2 | 

The next lines start with the values.

Row | IC50 (Table M) [µM] | IC50 (Table L) [µM] | Structure (SMILES)
24 | 112 |  | CN(C)CCN(C)CCOc1ccc2nc(-c3ccc(-c4nc5ccc(OCCN(C)CCN(C)C)cc5[nH]4)cc3)[nH]c2c1 [Compound 211]
25 | 179 |  | CN(C)C(C)(C)CCOc1ccc2nc(-c3ccc(-c4nc5ccc(OCCC(C)(C)N(C)C)cc5[nH]4)cc3)[nH]c2c1 [Compound 282, 4,4′-((1,4-phenylenebis(1H-benzo[d]imidazole-2,6-diyl))bis(oxy))bis(N,N,2-trimethylbutan-2-amine)]
26 | > 200 |  | CN(C)CCCOc1ccc2nc(-c3ccc(-c4nc5ccc(C(=O)O)cc5[nH]4)cc3)[nH]c2c1 [Compound 250, 2-(4-(6-(3-(dimethylamino)propoxy)-1H-benzo[d]imidazol-2-yl)phenyl)-1H-benzo[d]imidazole-6-carboxylic acid]
27 | 7.64 |  | Cc1cc(-c2nc3cc(-c4ccc5[nH]c(-c6ccc(OCCCN(C)C)c(C)c6)nc5c4)ccc3[nH]2)ccc1OCCCN(C)C [Compound 364]
28 | > 200 |  | CN(C)CCCOc1ccc2c(c1)nc(-c1ccc(-c3nc4cc(OCCCN(C)C)ccc4n3C)cc1)n2C [Compound 309]
29 | 46.9 |  | CCCCOc1cc(-c2nc3cc(OCCCN(C)C)ccc3[nH]2)c(OCCCC)cc1-c1nc2cc(OCCCN(C)C)ccc2[nH]1 [Compound 333]
30 | 18 |  | CN(C)CCOCCOc1ccc(-c2nc3cc(-c4ccc5[nH]c(-c6ccc(O)cc6)nc5c4)ccc3[nH]2)cc1 [Compound 368]
31 | 55.5 |  | COCCOc1cc(-c2nc3cc(OCCCN(C)C)ccc3[nH]2)c(OC)cc1-c1nc2ccc(OCCCN(C)C)cc2[nH]1 [Compound 262, 3-((2-(4-(6-(3-(dimethylamino)propoxy)-1H-benzo[d]imidazol-2-yl)-2-methoxy-5-(2-methoxyethoxy)phenyl)-1H-benzo[d]imidazol-5-yl)oxy)-N,N-dimethylpropan-1-amine]
32 | 132 |  | COCCn1c(-c2ccc(-c3nc4ccc(OCCCN(C)C)cc4[nH]3)cc2)nc2ccc(OCCCN(C)C)cc21 [Compound 330]
33 | 21.2 |  | Cc1cc(-c2nc3cc(-c4ccc5[nH]c(-c6cc(C)c(OCCCN(C)C)c(C)c6)nc5c4)ccc3[nH]2)cc(C)c1OCCCN(C)C [Compound 360]
34 | 39.8 |  | C#CCCCNC(=O)CCCOc1ccc2[nH]c(-c3ccc(-c4nc5cc(OCCCN(C)C)ccc5[nH]4)cc3)nc2c1 [Compound 322]
35 | 95.3 |  | CN(C)CCCOc1ccc2nc(-c3ccc(-c4nc5ccc(OCCCO)cc5[nH]4)cc3)[nH]c2c1 [Compound 222, 3-((2-(4-(5-(3-(dimethylamino)propoxy)-1H-benzo[d]imidazol-2-yl)phenyl)-1H-benzo[d]imidazol-5-yl)oxy)propan-1-ol]
36 | 18.4 |  | CN(C)CCCOc1ccc2nc(-c3ccc(-c4nc5ccc(OCCCN(C)C)cc5[nH]4)c(Br)c3)[nH]c2c1 [Compound 294, 3,3′-(2,2′-(2-bromo-1,4-phenylene)bis(3H-benzo[d]imidazole-5,2-diyl))bis(oxy)bis(N,N-dimethylpropan-1-amine)]
37 | 31.2 |  | CN(C)CCCCc1ccc(-c2nc3cc(-c4ccc5[nH]c(-c6ccc(CCCCN(C)C)cc6)nc5c4)ccc3[nH]2)cc1 [Compound 385]
38 | 64.7 |  | CN(C)CCCOc1ccc2nc(-c3ccc(-c4nc5ccc(OCCCC#N)cc5[nH]4)cc3)[nH]c2c1 [Compound 241, 4-((2-(4-(6-(3-(dimethylamino)propoxy)-1H-benzo[d]imidazol-2-yl)phenyl)-1H-benzo[d]imidazol-6-yl)oxy)butanenitrile]
39 |  | 5 | CN(C)CCCOC(=O)c1ccc2nc(-c3ccc(-c4nc5ccc(C(=O)OCCCN(C)C)cc5[nH]4)cc3)[nH]c2c1 [Compound 56]

— US10961202B2, “Bis-benzimidazole compounds and methods of using the same” (THE SCRIPPS RESEARCH INSTITUTE, priority 2017, dated 2021)
